Results taken from patent publication EP0557345B1, “1,3-BIS- 3-(MONO- OR POLY-HYDROXY)ACYLAMINO-5-(MONO- OR POLY-HYDROXYALKYL)AMINOCARBONYL-2,4,6-TRIIODO-BENZOYL-AMINO]-HYDROXY- OR HYDROXYALKYL-PROPANES, THEIR METHODS OF PREPARATION AND X-RAY CONTRAST MEDIA CONTAINING THEM” (DIBRA S.p.A., priority 1990, dated 1992).
Like-named read-outs stand apart in the source and are kept apart here.

Legend:
[1] = Osmolality of the solution; type: physicochemical; conditions: 37°C, 300 mgI/ml
[2] = Viscosity of the solution; type: physicochemical; conditions: 37°C, 300 mgI/ml
[3] = Plasma kinetics after intravenous administration in rats; type: in vivo; conditions: rat, 200 mgI/kg; for half-life: iv
Experimental: The apparent volume of distribution is 123.5 ml/kg showing that the product is distributed in plasma and the extracellular spaces.

mice = experiment: Acute toxicity, intravenous administration in mice; type: in vivo; conditions: 14 days of observation
[4] = Elimination through urine and bile after administration; type: in vivo, rats; conditions: after 7 hours from the administration
Experimental: Elimination occurs mainly through urinary pathway and in less extent through the bile. After 7 hours from the administration, 76.7% of the administered dose was found in the urine and 3.5% in the bile.

rats = experiment: Acute toxicity, intracisternal administration in rats; type: in vivo; conditions: 7 days of observation
Solubility in water = type: physicochemical

Row | Structure (SMILES) | Solubility in H₂O (Solubility in water; at 20°C) [% w/v] | Osmolality [1] [mosm/kg H₂O] | Viscosity [2] [mPa·s] | further results
1 | CC(=O)N(CC(O)CN(C(C)=O)c1c(I)c(C(=O)NCC(O)CO)c(I)c(C(=O)NCC(O)CO)c1I)c1c(I)c(C(=O)NCC(O)CO)c(I)c(C(=O)NCC(O)CO)c1I (stereo not shown) [C, 1,3-bis-[N-[3,5-bis-(2,3-dihydroxy-propyl)aminocarbonyl-2,4,6-triiodo-phenyl]-acetylamino]-2-hydroxy-propane, reference compound] | – | 196 | 8.7 | –
2 | C[C@H](O)C(=O)Nc1c(I)c(C(=O)NCC(O)CNC(=O)c2c(I)c(NC(=O)[C@H](C)O)c(I)c(C(=O)NC(CO)CO)c2I)c(I)c(C(=O)NC(CO)CO)c1I [Example 1, 1,3-bis-[3-(L-2-hydroxy-propionyl)amino-5-(1,3-dihydroxy-isopropyl)-aminocarbonyl-2,4,6-triiodo-benzoyl-amino]-2-hydroxy-propane] | – | 141 | 8.5 | Vd ([3]; read-out: apparent volume of distribution): 0.123 L/kg; clearance ([3]; read-out: total clearance): 7.9 mL/min/kg; half-life ([3]; read-out: half life for the distribution phase): 2.9 min; half-life ([3]; read-out: half life for the elimination phase): 22.9 min; LD₅₀ C.L. 95% (mice): > 15000 mgI/kg; administered dose found in the bile [4]: 3.5%; administered dose found in the urine [4]: 76.7%; LD₅₀ C.L. 95% (rats): >900 mgI/kg
3 | C[C@H](O)C(=O)Nc1c(I)c(C(=O)NCC(O)CNC(=O)c2c(I)c(NC(=O)[C@H](C)O)c(I)c(C(=O)NC(CO)C(O)CO)c2I)c(I)c(C(=O)NC(CO)C(O)CO)c1I (stereo partly drawn) [Example 4, 1,3-bis-[3-(L-2-hydroxy-propionyl)amino-5-(1,3,4-tri-hydroxy-2-butyl)aminocarbonyl-2,4,6-triiodo-benzoyl-amino]-2-hydroxy-propane] | 100 | – | – | –
4 | C[C@H](O)C(=O)Nc1c(I)c(C(=O)NCC(O)CO)c(I)c(C(=O)N(C)CC(O)CN(C)C(=O)c2c(I)c(NC(=O)[C@H](C)O)c(I)c(C(=O)NCC(O)CO)c2I)c1I (stereo partly drawn) [Example 8, 1,3-bis-[N-methyl-N-[3-(L-2-hydroxy-propionyl)amino-5-(2,3-dihydroxy-propyl)aminocarbonyl-2,4,6-triiodobenzoyl]amino]-2-hydroxy-propane] | > 100 | – | – | –
5 | C[C@H](O)C(=O)Nc1c(I)c(C(=O)NCC(O)CNC(=O)c2c(I)c(NC(=O)CO)c(I)c(C(=O)NCC(O)CO)c2I)c(I)c(C(=O)NC(CO)CO)c1I (stereo partly drawn) [Example 10, 1-[3-(L-2-hydroxy-propionyl)amino-5-(1,3-dihydroxyisopropyl)aminocarbonyl-2,4,6-triiodo-benzoyl-amino]-3-[3-hydroxyacetylamino-5-(2,3-dihydroxy-propyl)aminocarbonyl-2,4,6-triiodo-benzoyl-amino]-2-hydroxy-propane] | – | 131 | 8.6 | –
6 | C[C@H](O)C(=O)Nc1c(I)c(C(=O)NCC(O)CNC(=O)c2c(I)c(NC(=O)CO)c(I)c(C(=O)NC(CO)C(O)CO)c2I)c(I)c(C(=O)NC(CO)CO)c1I (stereo partly drawn) [Example 11, 1-[3-hydroxyacetylamino-5-(1,3,4-trihydroxy-2-butyl)aminocarbonyl-2,4,6-triiodo-benzoyl-amino]-3-[3-(L-2-hydroxy-propionyl)amino-5-(1,3-dihydroxy-isopropyl)aminocarbonyl-2,4,6-triiodo-benzoyl-amino]-2-hydroxypropane] | – | – | – | Solubility in H₂O (Solubility in water; at 25°C): > 100 % w/v

More lines, main results first:

Row | Solubility in H₂O (Solubility in water; at 20°C) [% w/v] | Structure (SMILES) | Osmolality [1] [mosm/kg H₂O] | Viscosity [2] [mPa·s] | further results
7 | 100 | O=C(CO)Nc1c(I)c(C(=O)NCC(O)CNC(=O)c2c(I)c(NC(=O)CO)c(I)c(C(=O)NC(CO)C(O)CO)c2I)c(I)c(C(=O)NC(CO)C(O)CO)c1I (stereo not shown) [Example 15, 1,3-bis-[3-hydroxyacetylamino-5-(1,3,4-trihydroxy-2-butyl)aminocarbonyl-2,4,6-triiodo-benzoyl-amino]-2-hydroxy-propane] | – | – | –
8 | 100 | CN(CC(O)CN(C)C(=O)c1c(I)c(NC(=O)CO)c(I)c(C(=O)NC(CO)C(O)CO)c1I)C(=O)c1c(I)c(NC(=O)CO)c(I)c(C(=O)NC(CO)C(O)CO)c1I (stereo not shown) [Example 16, 1,3-bis-[N-methyl-N-[3-hydroxyacetylamino-5-(1,3,4-trihydroxy-2-butyl)aminocarbonyl-2,4,6-triiodo-benzoyl]-amino]-2-hydroxy-propane] | – | – | –
